Laboratory results published in patent publication US20060110456A1, “Method for biocidal and/or biostatic treatment and compositions therefor” (NATIONAL UNIVERSITY OF SINGAPORE, priority 2004, published 2006).
“Also recorded” adds a separate entry of the source. Where a name gives a salt, the structure may show the parent alone.

What follows are compounds tested on barnacle nauplii (assay: Toxicity of drugs under different light conditions and over time (stability in seawater)). Settings: 25 ug ml^−1 seawater suspension, 12 h light and 12 h dark, after 4 weeks.
Assay type: in vivo, Balanus amphitrite
Experimental: Preliminary experiments were carried out to examine the chemical stability of the drugs. 25 ug ml^−1 seawater suspensions of the drugs were prepared, in 3 replicates per condition, 3 replicate tubes containing 15 ml per test tube per prepared for each treatment type. The treatments consisted of: • i. Dark condition: tubes were wrapped in aluminium foil and kept in the dark at all times • ii. 12L:12D condition, where the tubes were subject incubated in a plant growth chamber with light regime of 12 hours light and 12 hours dark. • iii. UV treated tubes were subject to UV for half an hour. […] Sets (1) & (2) were tested at week 0, 1, 2 and after 4 weeks. “UV” set is only assayed after UV treatment. […] Effect of UV

Row | SMILES | Change in toxicity on ageing in seawater, 12L:12D condition
1 | CCCCCCCCCC(=O)OC1(c2ccc(Cl)cc2)CCN(CCCC(=O)c2ccc(F)cc2)CC1 [HDL, haloperidol decanoate] | increased in toxicity
2 | CN[C@H]1CC[C@@H](c2ccc(Cl)c(Cl)c2)c2ccccc21.Cl [ZLT, sertraline hydrochloride] | not altered by any of the treatments applied
3 | CN1CCN(CCCN2c3ccccc3Sc3ccc(C(F)(F)F)cc32)CC1 [TFZ, Trifluoperazine hydrochloride] | marked decrease in toxicity

Same assay, conditions: 25 ug ml^−1 seawater suspension, UV for half an hour

Row | SMILES | Effect of UV on drug toxicity to barnacle nauplii
4 | CN[C@H]1CC[C@@H](c2ccc(Cl)c(Cl)c2)c2ccccc21.Cl [ZLT, sertraline hydrochloride] | not altered by any of the treatments applied
5 | CN1CCN(CCCN2c3ccccc3Sc3ccc(C(F)(F)F)cc32)CC1 [TFZ, Trifluoperazine hydrochloride] | some increase in toxicity

Same assay, conditions: 25 ug ml^−1 seawater suspension, after 4 weeks

Row | SMILES | Change in toxicity on ageing in seawater, dark condition
6 | CN[C@H]1CC[C@@H](c2ccc(Cl)c(Cl)c2)c2ccccc21.Cl [ZLT, sertraline hydrochloride] | not altered by any of the treatments applied
7 | CN1CCN(CCCN2c3ccccc3Sc3ccc(C(F)(F)F)cc32)CC1 [TFZ, Trifluoperazine hydrochloride] | appreciable decrease in toxicity

Same assay, conditions: other studies carried out by the group

Row | SMILES | Stability under UV and in seawater
8 | CN1CCN(C(c2ccccc2)c2ccccc2)CC1 [CYZ, Cyclizine hydrochloride] | does not breakdown under UV and remains stable after four months in seawater

What follows are compounds tested on Balanus amphitrite stage II naupliar larvae (assay: not given). Settings: Balanus amphitrite, in vivo.
Experimental: Pharmaceuticals from the respective manufacturers were treated in the following way. A pill containing a known amount of active ingredient (as stated in product information) was ground in a mortar and pestle and a suspension of 2 mg ml^−1 generated in de-ionized water. This stock solution is stored at −20° C. in 4 ml amber screw cap vials. For the bioassays, 250 ul of stock solution is added to 10 ml of 1 um filtered seawater. This suspension was then sonicated for 10 minutes. Serial dilutions of this 50 μg ml^−1 seawater solution, or suspension, with seawater was done to generate the required range of concentrations.
Stage II naupliar larvae used in tests were obtained from Balanus amphitrite adults collected from inter-tidal rock walls at Kranji mangrove, Singapore. Larvae were collected from a container of adults by attraction to a point source of light and transferred to 500 ml of fresh seawater. Next, larvae were re-concentrated with a fiber optic light and added to assays.
Duplicate assays were conducted in 2 ml micro-centrifuge tubes (Axygen MCT-200-C) in 1.5 ml of filtered seawater for 22 to 24 hours. The assays were repeated for confirmation. There were four controls (vehicle only, 0 μg ml^−1), and 2 tubes of each for each test concentration. The assay was initiated by addition of barnacle nauplii in 50 to 100 μl of seawater.
After 22 to 24 hours of incubation at 25-27° C., solutions containing test animals were transferred to a Bogorov tray and scored as living or dead. Moribund larvae were scored as dead. Results were confirmed by repeating the assay. […] If data were not appropriate for probit analysis, the LC50 was estimated from graphed data.

Row | SMILES | LD50
9 | CCCCCCCCCC(=O)OC1(c2ccc(Cl)cc2)CCN(CCCC(=O)c2ccc(F)cc2)CC1 [HDL, haloperidol decanoate] | 252.68 ng/mL

Same assay, conditions: barnacle nauplii, 22 to 24 hours; concentration that caused 50% mortality

Row | SMILES | LD50
10 | CN(C)C(=O)C(CCN1CCC(O)(c2ccc(Cl)cc2)CC1)(c1ccccc1)c1ccccc1 [IMD, Loperamide hydrochloride] | 241.34 ng/mL
11 | CN1CCN(C(c2ccccc2)c2ccccc2)CC1 [CYZ, Cyclizine hydrochloride] | 61.05 ng/mL
12 | CN[C@H]1CC[C@@H](c2ccc(Cl)c(Cl)c2)c2ccccc21.Cl [ZLT, sertraline hydrochloride] | 1.58 ng/mL
13 | CN1CCN(CCCN2c3ccccc3Sc3ccc(C(F)(F)F)cc32)CC1 [TFZ, Trifluoperazine hydrochloride] | 9.35 ng/mL

Same assay, conditions: crude rank, best (1) to worst (8)

Row | SMILES | Toxicity to barnacle nauplii
14 | CN[C@H]1CC[C@@H](c2ccc(Cl)c(Cl)c2)c2ccccc21.Cl [ZLT, sertraline hydrochloride] | 1

Same assay, conditions: in vivo

Row | SMILES | Toxicity to barnacle nauplii and cyprids
15 | CN1CCN(C(c2ccccc2)c2ccccc2)CC1 [CYZ, Cyclizine hydrochloride] | toxic to barnacle nauplii and cyprids
16 | CCCCCCCCCC(=O)OC1(c2ccc(Cl)cc2)CCN(CCCC(=O)c2ccc(F)cc2)CC1 [HDL, haloperidol decanoate] | toxic to barnacle nauplii and cyprids
17 | CN1CCN(CCCN2c3ccccc3Sc3ccc(C(F)(F)F)cc32)CC1 [TFZ, Trifluoperazine hydrochloride] | very toxic to nauplii and cyprids

What follows are compounds tested on Bugula neritina larvae (assay: Bioassay against bryozoan larvae). Settings: crude rank, best (1) to worst (8).
Assay type: in vivo
Experimental: Bugula neritina (Phylum Bryozoa, Class Gymnolaemata, Order Cheilostomatida) is a cosmopolitan species of bryozoan, commonly found in most marine fouling communities. The larvae are brooded in ovicells found on the stem of the colonies. When released, the larva will settle quickly on most surfaces, within a few minutes. At 24° C., the settled larvae forms the one-cell ancestrula, and after 48 hours, the lophophore has developed and extended for feeding.
Adult colonies of Bugula neritina were collected from fouling communities growing on the submerged pontoons on a floating fish farm located off Changi, Singapore. Adult animals were maintained in the open-circulation aquarium at St John's island marine laboratory, Singapore. The adults were kept in total darkness for 24 hours. On exposure to light, larvae were released after half an hour. […] Because the larvae will settle quickly, larvae were pipetted directly into test wells in 1 ml of seawater using a graduated glass pipette.
4 replicates were done for each treatment. After 24 hours, larvae were scored as settled, swimming or dead/deformed. The assay plates were usually kept for another 24 hours and checked again, to ascertain that the settled larvae had developed into viable colonies with lophophores. Two trials were repeated for each compound.
Bioassays were carried out using the method described above, in July 2003 during the peak spawning season for Bugula.

Row | SMILES | Prevention of settlement of Bugula larvae
18 | CN(C)C(=O)C(CCN1CCC(O)(c2ccc(Cl)cc2)CC1)(c1ccccc1)c1ccccc1 [IMD, Loperamide hydrochloride] | 7
19 | CN1CCN(C(c2ccccc2)c2ccccc2)CC1 [CYZ, Cyclizine hydrochloride] | 5
20 | CCCCCCCCCC(=O)OC1(c2ccc(Cl)cc2)CCN(CCCC(=O)c2ccc(F)cc2)CC1 [HDL, haloperidol decanoate] | 4
21 | CN[C@H]1CC[C@@H](c2ccc(Cl)c(Cl)c2)c2ccccc21.Cl [ZLT, sertraline hydrochloride] | 1
22 | CN1CCN(CCCN2c3ccccc3Sc3ccc(C(F)(F)F)cc32)CC1 [TFZ, Trifluoperazine hydrochloride] | 2

The compounds below were run on biofilm bacteria (strains 4, 9, 14, 20, 27, 28) (assay: Effect of pharmaceuticals on adhesion of bacteria to plastic / biofilm formation on NTC and TC plates). Settings: 25 ug ml−1; NTC = untreated polystyrene, TC = tissue-culture treated; strains 4, 9, 14, 20, 27, 28.
Assay type: cell-based, marine bacteria isolated from Singapore fouling communities
Experimental: Commercial forms of pharmaceuticals were used as previously described. […] These samples were sonicated for at least 1 min and these fine suspensions were used as initial stock solutions.
For studies of bacterial adhesion, the pharmaceuticals were first sterilized by soaking in absolute alcohol (Merck) for half an hour. Ethanol was removed by air-drying with air passed through 0.25 μm pore size syringe filter (Sartorius, Germany). Stock solutions were concentrations of 100 μg ml−1 in SDI.
The effect of pharmaceuticals on bacterial adhesion was analyzed using a modified microplate method adapted from Shea and Williamson (1990). This method employs a combination of staining attached bacteria with crystal violet, releasing the stain with sodium desoxycholate, and measuring the resulting absorbance of the crystal violet.
Detailed results for six selected strains are presented here: strains 4, 9, 14, 20, 27, 28. The bacterial strains were grown in Marine Broth (Pronadisa, Spain) overnight, in the dark, at 28° C. on a rotary shaker (150 rpm) in 5 ml centrifuge tubes (Falcon). Cells were harvested by centrifugation (1500×g, 10 min) and resuspended in sterile seawater (SSW). SSW was prepared by filtering seawater through a 0.2 μm pore size filter (Sartorius) followed by autoclaving. The cells were centrifuged and resuspended once more in SSW. The concentration of resuspended cells was adjusted to A600=1.0 using a spectrophotometer (Beckman DU530, USA).
Flat bottom 96 well polystyrene (hydrophobic, Falcon 351172) (=NTC) and tissue-culture treated polystyrene (hydrophilic, Falcon 353072) (=TC) microplates were used in the analyses. Each test was performed in triplicate. Two sets of experiments were conducted. […] For the control and blank wells, 25 ul of SDI were added. For wells containing pharmaceuticals, 25 ul of the respective pharmaceutical at a concentration of 100 ug ml−1 were added. This was immediately followed by the addition of 75 ul of bacterial suspension. To blanks were added 75 ul of SSW.
The bacterial cells in suspension were allowed to attach for 2 h at 28° C. Unattached cells were removed by aspiration using a plate washer (Tecan, Austria) and wells were rinsed three times with 200 ul of SSW each time. The attached cells were stained with 200 ul of crystal violet solution (0.1% w/v in deionized water) in each well for 5 min. After removing the stain using the plate washer, the wells were rinsed twice with 300 ul of SDI each time. Sodium desoxycholate (200 ul) solution (2% w/v in deionized water) was added to each well to extract the crystal violet from the attached stained cells for 10 min. The absorbance of the crystal violet was read at 590 nm using a microplate reader (Sunrise, Tecan, Austria).
Results of the adhesion assay were obtained by the difference in absorbance readings between wells containing bacterial cells and the mean of absorbance of those containing the SSW only. The effect of the pharmaceuticals on bacterial adhesion was determined by the examining the differences in absorbance between the wells containing the pharmaceuticals+bacteria and the bacteria. The significance was compared using T-test.

Row | SMILES | Effect on formation of bacterial biofilms on NTC and TC plates
23 | CCCCCCCCCC(=O)OC1(c2ccc(Cl)cc2)CCN(CCCC(=O)c2ccc(F)cc2)CC1 [HDL, haloperidol decanoate] | no significant difference from control; also recorded: On TC, there was a slight reduction in biofilm formation for strain 28 (p<0.1); also recorded: No significant reduction in biofilm formation was observed for most strains, except for strain 28, where there appears to be a slight effect (0.05<p<0.1)

Same assay, conditions: 25 ug ml−1; NTC = untreated polystyrene, TC = tissue-culture treated; strains 4, 9, 14, 20, 27, 28; hydrochloride

Row | SMILES | Effect on formation of bacterial biofilms on NTC and TC plates
24 | CN(C)C(=O)C(CCN1CCC(O)(c2ccc(Cl)cc2)CC1)(c1ccccc1)c1ccccc1 [IMD, Loperamide hydrochloride] | On NTC, there was a slight reduction in strain 28; also recorded: reduction of biofilm growth in strain 28 on NTC but not on TC
25 | CN1CCN(C(c2ccccc2)c2ccccc2)CC1 [CYZ, Cyclizine hydrochloride] | significantly more bacteria adhesion for strain 9; also recorded: No significant reduction in biofilm formation
26 | CN[C@H]1CC[C@@H](c2ccc(Cl)c(Cl)c2)c2ccccc21.Cl [ZLT, sertraline hydrochloride] | Biofilm formation was reduced for most strains except strain 14; also recorded: reduction of biofilm growth for most strains (except strain 14) on NTC, but only for strain 28 on TC
27 | CN1CCN(CCCN2c3ccccc3Sc3ccc(C(F)(F)F)cc32)CC1 [TFZ, Trifluoperazine hydrochloride] | reduced biofilm formation on NTC plates; also recorded: active against strain 4, 14, 27 on NTC but no reduction of biofilms was observed on the TC plates

Same assay, conditions: crude rank, best (1) to worst (8)

Row | SMILES | Prevention of formation of biofilm
28 | CN(C)C(=O)C(CCN1CCC(O)(c2ccc(Cl)cc2)CC1)(c1ccccc1)c1ccccc1 [IMD, Loperamide hydrochloride] | 7
29 | CN1CCN(C(c2ccccc2)c2ccccc2)CC1 [CYZ, Cyclizine hydrochloride] | 8
30 | CCCCCCCCCC(=O)OC1(c2ccc(Cl)cc2)CCN(CCCC(=O)c2ccc(F)cc2)CC1 [HDL, haloperidol decanoate] | 6
31 | CN[C@H]1CC[C@@H](c2ccc(Cl)c(Cl)c2)c2ccccc21.Cl [ZLT, sertraline hydrochloride] | 3
32 | CN1CCN(CCCN2c3ccccc3Sc3ccc(C(F)(F)F)cc32)CC1 [TFZ, Trifluoperazine hydrochloride] | 4
